# Source: patent publication US11666532B2, “Tranexamic acid oral solution” (Hyloris Developments SA, priority 2018, dated 2023)
# Where two headings read alike, the source gives them in different places.
# Assays:
# [1] = system: whole blood or citrated blood from normal subjects; conditions: cited from earlier work
# [2] = cited from earlier work
# [3] = system: bleeding during or after dental procedures; conditions: local tranexamic acid as a supplement to systemic therapy; cited from earlier work
# [4] = cited from earlier work; remark: listed apart in the source
# plasma protein = conditions: cited from earlier work
# plasminogen = plasminogen (Homo sapiens, UniProt P00747); conditions: cited from earlier work
# Chain of plasminogen (P00747 20-810 limits assumed): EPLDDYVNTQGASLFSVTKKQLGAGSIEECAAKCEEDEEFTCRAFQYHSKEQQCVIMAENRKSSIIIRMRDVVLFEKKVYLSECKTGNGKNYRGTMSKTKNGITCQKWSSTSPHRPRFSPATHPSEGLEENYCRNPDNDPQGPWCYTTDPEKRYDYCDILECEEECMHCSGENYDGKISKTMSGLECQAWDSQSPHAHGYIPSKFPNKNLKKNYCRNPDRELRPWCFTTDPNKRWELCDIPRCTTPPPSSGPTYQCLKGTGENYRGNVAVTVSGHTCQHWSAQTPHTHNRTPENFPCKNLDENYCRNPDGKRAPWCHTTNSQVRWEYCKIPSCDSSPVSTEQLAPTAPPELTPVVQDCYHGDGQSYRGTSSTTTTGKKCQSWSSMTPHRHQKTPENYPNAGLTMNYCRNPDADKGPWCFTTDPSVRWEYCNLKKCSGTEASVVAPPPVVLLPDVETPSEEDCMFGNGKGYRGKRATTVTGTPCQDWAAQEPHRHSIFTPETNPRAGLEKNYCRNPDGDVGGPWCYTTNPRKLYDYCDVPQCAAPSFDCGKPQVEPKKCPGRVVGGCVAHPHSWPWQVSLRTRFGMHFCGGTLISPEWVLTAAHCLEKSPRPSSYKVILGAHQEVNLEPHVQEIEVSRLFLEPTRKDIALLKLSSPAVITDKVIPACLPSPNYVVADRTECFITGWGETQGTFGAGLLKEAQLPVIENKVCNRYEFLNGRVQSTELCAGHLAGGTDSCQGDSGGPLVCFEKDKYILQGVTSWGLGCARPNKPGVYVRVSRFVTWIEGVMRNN
# serum albumin = serum albumin (Homo sapiens, UniProt P02768); conditions: cited from earlier work
# Chain of serum albumin (P02768 25-609): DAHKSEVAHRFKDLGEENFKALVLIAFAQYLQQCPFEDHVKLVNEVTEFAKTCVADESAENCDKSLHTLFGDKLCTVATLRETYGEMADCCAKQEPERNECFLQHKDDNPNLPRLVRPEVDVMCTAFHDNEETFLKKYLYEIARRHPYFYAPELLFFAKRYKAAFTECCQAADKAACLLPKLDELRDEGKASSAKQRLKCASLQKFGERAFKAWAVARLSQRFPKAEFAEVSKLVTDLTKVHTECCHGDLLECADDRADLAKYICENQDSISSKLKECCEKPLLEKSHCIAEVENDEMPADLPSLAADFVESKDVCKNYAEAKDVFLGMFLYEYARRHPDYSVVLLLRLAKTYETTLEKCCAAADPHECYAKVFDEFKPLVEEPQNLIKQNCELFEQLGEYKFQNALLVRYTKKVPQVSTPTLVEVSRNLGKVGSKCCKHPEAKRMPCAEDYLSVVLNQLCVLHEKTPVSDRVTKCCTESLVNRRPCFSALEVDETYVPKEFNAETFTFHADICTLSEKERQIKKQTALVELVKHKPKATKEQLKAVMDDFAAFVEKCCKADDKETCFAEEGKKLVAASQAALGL
# [5] = Binary mixtures study: discoloration at 60° C., visual inspection; format: physicochemical; conditions: binary mixture with TXA in phosphoric acid solution pH 5.5, glass vials, 60° C. oven, 2 weeks
# Method: To determine which components of the formulation were responsible for the discoloration, binary mixtures of TXA and each component were dissolved in phosphoric acid solution at pH 5.5 in amounts representative to their concentration in Formulation A of Table 1A.
# Samples of each mixture in Table 1B were placed in glass vials and stored in 60° C. oven for 2 weeks and visually inspected periodically for discoloration. The samples from Table 1B containing TXA and Sorbitol (sample 5), or TXA and Glycerin (sample 3), or TXA and Poloxamer 407 (sample 6), or TXA and spearmint flavor F-4785, turned yellow. Thus sorbitol, glycerin, poloxamer 407 and spearmint flavor were considered to be the ingredients responsible for the discoloration of formula A.
# Binary mixtures of TXA and alternative surfactants were prepared and samples were stored in a 60° C. oven to test for discoloration as described in Table 2.
# Binary mixtures of Na CMC and TXA were prepared and stored at 60° C. for 2 weeks to test for discoloration as in Table 3.
# [6] = after oral and intravenous administration
# [7] = four doses of 10-20 mg per kg body weight 36-48 hours before surgery
# [8] = three hours after a single oral dose of 25 mg per kg body weight
molecule,measurement,setting,value
"NC[C@H]1CC[C@H](C(=O)O)CC1 [tranexamic acid, trans-4-(aminomethyl) cyclohexanecarboxylic acid]",thrombin time,[1]; concentrations of 1 mg to 10 mg per mL blood,prolongs
same,"influence on the platelet count, the coagulation time, or various coagulation factors","[1]; concentrations up to 10 mg per mL blood, whole blood or citrated blood from normal subjects",no influence
same,"concentrations in saliva, initially",[2]; after mouth rinse,above 200 μg per mL
same,plasma concentrations,[2]; after mouth rinse,below 2 μg per mL
same,time saliva concentrations remained above therapeutic levels,[2]; after mouth rinse,more than 2 hours
same,saliva levels,"[2]; after oral administration, any time point",undetectable
same,maximum mean plasma concentration,[2]; after oral administration,~7 μg per mL
same,time to maximum mean plasma concentration,[2]; after oral administration,120 min
same,incidence of bleeding during or after dental procedures (postoperative bleeding),[3],significantly reduces
same,excretion,[4]; 24 hours after oral administration of 10-15 mg per kg body weight,39%
same,concentration in fetal serum,[4]; after intravenous injection of 10 mg per kg body weight,about 30 μg per mL
same,acetylated product excreted,[4]; after oral administration,~0.5%
same,deaminated dicarboxylic acid excreted,[4]; after oral administration,~2%
same,parent compound excreted,[4]; after oral administration,approximately 50%
same,fibrinolytic activity of the semen,[4]; [6],inhibits
same,motility of the spermatozoa,[4]; [6],without affecting
same,passage into the semen,[4]; [6],passes into the semen
same,concentration in breast milk relative to corresponding serum levels,[4]; during lactation,1/100
same,plasma concentration,[4]; five hours after intravenous 10 mg per kg body weight,5 μg per mL
same,time an antifibrinolytically active concentration (10 μg/mL) remained in the serum,[4]; [7],7 to 8 h
same,time an antifibrinolytically active concentration (10 μg/mL) remained in the tissues investigated,[4]; [7],up to 17 hours
same,biological half-life in the joint fluid,[4]; in vivo,about 3 hours
same,concentration in the joint fluid compared with the serum,[4]; in vivo,same concentration
same,dose excreted in the urine as unchanged drug,[4]; in vivo,more than 95%
same,fraction of the drug metabolized,[4]; in vivo,less than 5%
same,placental transfer,[4]; in vivo,crosses the placenta
same,half-life for the terminal elimination phase,[4]; intravenous dose of 1 g,about 2 hours
same,plasma concentration,[4]; one hour after intravenous 10 mg per kg body weight,18.3 μg per mL
same,excretion,[4]; one hour after intravenous administration of 10 mg per kg body weight,about 30%
same,excretion,[4]; one hour after oral administration of 10-15 mg per kg body weight,1%
same,effect of food intake on bioavailability,[4]; oral,not affected
same,ability to cross the blood-brain barrier,[4]; patients with ruptured intracranial aneurysms,has been demonstrated
same,aqueous humor level,[4]; [8],1.6 mg per L
same,peak serum level,[4]; [8],15.4 mg per L
same,plasma concentration,[4]; three hours after intravenous 10 mg per kg body weight,9.6 μg per mL
same,excretion,[4]; three hours after intravenous administration of 10 mg per kg body weight,~55%
same,excretion,[4]; three hours after oral administration of 10-15 mg per kg body weight,7%
same,plasma protein binding,plasma protein; at therapeutic plasma levels of 5-10 mg/L,negligible
same,plasma protein binding,plasma protein; at therapeutic plasma levels,about 3%
same,binding to strong and weak sites in the plasminogen molecule relative to epsilon aminocaproic acid (EACA),plasminogen,considerably more strongly
same,binding to serum albumin,serum albumin,does not bind
"alpha-D-Glucopyranoside, beta-D-fructofuranosyl, monooctadecanoate [Sucrose Stearate]",Discoloration,[5],did not dissolve into solution
"beta-D-Fructofuranosyl-alpha-D-glucopyranoside, monododecanoate [Sucrose Laurate]",Discoloration,[5],didn't cause discoloration
polyoxyethylene sorbitan monolaurate [Tween 20],Discoloration,[5],didn't cause discoloration
polyoxyethylene (20)sorbitan monooleate [Tween 80],Discoloration,[5],didn't cause discoloration
